Assay [1] concerns IL-1β-induced NF-κB signaling in HEK-Blue IL-33/IL-1β cells. In words: NF-κB QUANTI-Blue assay. The class given is cell-based. To be noted: Kineret 1.0 mg/mL, 30 min pretreatment, IL-1β 100 ng/ml. As for the experimental part: FIG. 3 is a graph showing the effects of peptides 1 and 2 on IL-1β-induced NF-κB signaling in HEK-Blue cells as quantified in the QUANTI-blue assay. After pre-incubation with peptide or vehicle, HEK-Blue cells were stimulated with IL-1β for 24 h, and secreted alkaline phosphatase activity was spectroscopically detected as a reporter product from the transcription of the NF-κB gene. Data shown represents the average of 2 experiments (each with n=4 per treatment group): ****p<0.0001 compared to group treated only with IL-1β.
HEK-Blue IL-33/IL-1β cells (InvivoGen) were respectively pretreated with peptides 1 and 2 (10^−6 M), or Kineret (1.0 mg/mL) for 30 min, followed by treatment with a constant concentration of […] (100 ng/ml), and incubation at 37° C. for 4 h. Levels of secreted alkaline phosphatase in cell culture supernatant were determined using the QUANTI-Blue assay, according to the manufacturer's instructions (InvivoGen). Alkaline phosphatase activity was assessed by measuring the optical density (OD) at 620-655 nm with an EnVision Multilabel micro plate reader (PerkinElmer, Waltham, MA). Data are representative of 3 experiments (each with n=4 per treatment group).

Another assay has as its system IL-1β gene expression. In words: qPCR of IL-1β gene expression in RAW 264.7 macrophages. Particulars: peptide 10^−6 M, 30 min pre-incubation, IL-1β stimulation, RAW 264.7 mouse macrophages. The class given is cell-based. As for the experimental part: (§1) FIGS. 4A and 4B are graphs showing the results of qPCR analysis of IL-1β (FIG. 4A) and COX-2 (FIG. 4B) gene expression within lysates from RAW 264.7 mouse macrophage cells after exposure to peptides 1 and 2 (10^-6 M) or Kineret (1 mg/mL) followed by […] incubation overnight. Results represent an average of 3 independent experiments (each with n=4 per treatment group) and are expressed as a fold-change of the non-stimulated control: *p<0.05, **p<0.01 compared to group treated only with IL-1β, and 18S rRNA as internal control. Treatment groups that are not labeled with asterisks are statistically non-significant compared to group treated only with IL-1β.;
(§2) RAW Blue cells were purchased from InvivoGen® (San Diego, CA), used at passages under 15, and cultured in DMEM growth medium supplemented with 10% serum, 50 U/mL penicillin and […] zeocin. Cells were grown in regular conditions (37° C., 5% CO2), serum starved overnight, and treated with 100 ng/ML IL-1β for 4 h. Cells were respectively pre-incubated for 30 min with peptides 1 and 2 (10^−6 M) or Kineret® (1.0 mg/mL) to reach equilibrium prior to the experiments (n=4 each treatment). Cells were harvested and incubated for 5 min in RIBOzol® (AMRESCO). RNA was extracted according to manufacturer's protocol and RNA concentration and integrity were measured with a NanoDrop® 1,000 spectrophotometer. A total of 500 ng of RNA was used to synthesize cDNA using iScript Reverse Transcription SuperMix® (Bio-Rad, Hercules, CA). Primers (Table 1) were designed using National Center for Biotechnology Information Primer Blast. Quantitative gene expression analysis was performed on Stratagene® MXPro3000 (Stratagene) with SYBR Green Master Mix (Bio-Rad). Gene expression levels were normalized to 18S universal primer (Ambion Life Technology, Burlington ON, Canada). Genes analyzed include […] and PTGHS2 [Prostaglandin H synthetase 2 or cyclooxygenase-2 (COX-2)]. Data are representative of 3 experiments (each with n=4 per treatment group).
On the technique in general: In qPCR the cycle at which signal appears reflects the starting amount.

Assay [2] relates to COX-2 (PTGHS2) gene expression. Kind of assay: qPCR of COX-2 gene expression in RAW 264.7 macrophages. The class given is cell-based. Particulars: peptide 10^−6 M, 30 min pre-incubation, IL-1β stimulation, RAW 264.7 mouse macrophages. As for the experimental part: as §1, §2
The subject of assay [3] is IL-1β-induced phosphorylation of JNK. In words: IL-1β-induced JNK phosphorylation, Western blot, RAW Blue cells. The class given is cell-based. Particulars: peptide 10^−6 M 30 min, then IL-1β 15 min. As for the experimental part:
(§3) FIGS. 5A-C are graphs showing the effects of peptides 1 and 2 on IL-1β-induced phosphorylation of p38 (FIG. 5A), JNK (FIG. 5B), and ROCK2 (FIG. 5C). Graphical representations of band density analysis of Western Blots are shown as fold activation compared to control. RAW Blue cells were pretreated with peptides 1 and 2 (10^−6 M), Kineret (1 mg/mL), or vehicle for 30 min and then stimulated with IL-1β for 15 min. Results shown are the average of 3 independent experiments: *p<0.05, ** p<0.01, ***p<0.001 compared to group treated only with IL-1β. Treatment groups that are not labeled with asterisks are statistically non-significant compared to group treated only with IL-1β.
For orientation: In western blotting, separated proteins are transferred to a membrane and probed.

For the next assay, the system named is timed-pregnant CD-1 mice. Kind of assay: LPS-induced preterm birth model in mice. It is filed as in vivo, mouse. To be noted: 2 mg/kg/day subcutaneous, LPS 10 μg intraperitoneal on G16.5. As for the experimental part: FIG. 6 is a graph showing the effects of peptides 1 and 2 on prevention of PTB. In brief, pregnant dams on day 16.5 of gestation (G16.5) were subcutaneously pretreated with peptides 1 and 2 (2 mg/kg/day subcutaneous injections) or vehicle, followed by LPS (10 μg intraperitoneal injection), and observed for delivery of pups. A dam was considered as delivering preterm if at least one pup was delivered before G18.5. n=4-5 dams per treatment group.
Timed-pregnant CD-1 mice at 16.5 days of gestation (G16.5) were anesthetized with 2% isoflurane and received an intraperitoneal injection of lipopolysaccharide (LPS, n=4 per group, a single dose of 10 ug) (Nadeau-Vallée et al., 2015; Kakinuma et al., 1997). A dosage of 2 mg/kg/day of peptides 1 and 2 or vehicle was respectively injected subcutaneously in the neck, every 12h until delivery. On G16.5, a dose of 1 mg/kg was injected 30 min before stimulation with LPS (to allow distribution of drugs to target tissues) and 1 mg/kg was injected 12h after stimulation (n=4 each treatment). Mice delivery was assessed every hour until term (G19-G19.5). A mouse was considered as delivering prematurely if the first pup was delivered earlier than G18.5. Data was analyzed using Prism 7 (GraphPad Software, San Diego, CA, USA) with one-way ANOVA and Dunnett's test for multiple comparisons. Outliers were detected using Grubb's test. Results were treated as significant when p was <0.05 and expressed as mean+SEM.
From the results of the in vitro screens, a subset of six (3R,4S)-β-substituted-Agl^3 peptides (e.g., 2c, 2d, 2f, 2l, 2n, 2q) were selected for examination in vivo in a CD-1 mouse model of preterm birth (PTB), and a Sprague Dawley rat model of oxygen-induced retinopathy (OIR). In the PTB model, timed-pregnant CD-1 dams were pre-treated with peptides 1 or 2, or PBS vehicle, and then injected with LPS on day 16.5 of gestation (G16.5). A bacterial cell wall component that contains PAMPs, LPS is known to reliably induce labor via pro-inflammatory pathways implicating IL-1 (Hirsch and Wang 2005). The CD-1 mice have a gestation of 19.2 days (Goupil et al. 2010). Dams that delivered at least one pup before G18.5 were considered to have given birth prematurely. In the absence of peptide, LPS alone induced premature labor in ˜80% of treated mice (FIG. 6). Peptide 1 and triazoles 2 l and 2q, all reduced the PTB rate to ˜20%.

The next assay has as its system Sprague Dawley rat pups. In words: Oxygen-induced retinopathy (OIR) model. It is filed as in vivo. Particulars: 2 mg/kg/day intraperitoneal twice daily, 80% oxygen P5 to P10; for extent of vaso-obliteration (percentage of total retinal area): vehicle ˜30%. From the text:
Experiments in the oxygen-induced retinopathy rodent model were preformed according to the method described previously (Geranurimi et al. 2019), and summarized below.
Animals. Two-day-old (P2) Sprague Dawley rat pups and their mothers were ordered from Charles River (Raleigh, SC, USA) and acclimatized for 3 days in standard conditions. All procedures and protocols involving the use of the rats were approved by the Animal Care Committee of the research center of Hopital Maisonneuve-Rosemont and are in accordance with the Statement for the Use of Animals in Ophthalmic and Vision Research approved by the Association for Research in Vision and Ophthalmology, and guidelines established by the Canadian Council on Animal Care.
Oxygen-Induced Retinopathy in Sprague Dawley Rats. The 80% oxygen model of retinopathy was conducted as previously described (Geranurimi et al. 2019). Briefly, litters of P5 pups and their mothers were kept in a controlled 80% oxygen environment until P10. The pups were respectively injected intraperitoneally twice daily with PBS vehicle (20 μL per injection), peptide 1 or derivatives 2 (titrated to a daily dose of 2 mg/kg/day). Control litters were kept under normal air atmosphere and standard conditions. On P10, pups were euthanized by decapitation under 2% isoflurane anesthesia. Eyes were enucleated and fixed in 4% paraformaldehyde, then stored at 4° C. in phosphate-buffered saline (PBS) until further processing.
Retinal Flatmount and Immunohistochemistry. The fixed eyes were dissected, and the obtained retinas were incubated with antibodies and mounted onto slides as previously described in (Geranurimi et al. 2019). Briefly, the cornea and lens were removed from the eyes, and the retina gently removed from the underlying sclera-choroid-retinal pigmented epithelium (RPE) complex. Retinas were treated for 1h with blocking solution [1% bovine serum albumin (BSA), 1% normal goat serum, 0.1% Triton X-100 and 0.05% Tween-20 in PBS], and then incubated overnight with lectin and Iba-1 primary antibody, followed by Alexa-594-conjugated secondary antibody for 2 h. Retinas were then mounted onto microscope slides under coverslips with anti-fade mounting medium.
Microscopy. Retinal flatmounts were imaged using the Zeiss Axiolmager Z2 and the MosaiX feature of the AxioVision software as previously described (Geranurimi et al. 2019). Representative images after Iba-1 staining were taken using a laser scanning confocal microscope (Olympus IX81 with Fluoview FV1000 Scanhead) using the Fluoview Software at 30× magnification.
Quantification and Data Analysis. The FIJI software was used to quantify the area of vaso-obliteration in each retina, expressed as a percentage of the area of the whole retina. The number of Iba-1-positive cells was counted using the cell counter plug-in in the FIJI software, and the average of cell counts in 4 fields per retina was calculated. Data was analyzed using Prism 7 with one-way ANOVA and the Dunnett's test for multiple comparisons. Results were treated as significant when p was less than 0.05 and expressed as mean+SEM.

Assay [4] has as its system IL-1β-induced phosphorylation of p38. In words: IL-1β-induced p38 phosphorylation, Western blot, RAW Blue cells. To be noted: peptide 10^−6 M 30 min, then IL-1β 15 min. It is filed as cell-based. As for the experimental part: as §3
Assay [5] deals with IL-1β-induced phosphorylation of ROCK2. In words: IL-1β-induced ROCK2 phosphorylation, Western blot, RAW Blue cells. Particulars: peptide 10^−6 M 30 min, then IL-1β 15 min. It is filed as cell-based. As for the experimental part:
as §3

For “Kineret®: the recombinant IL-1 receptor antagonist, Kineret® (anakinra)”, the “effect on IL-1β-induced NF-κB signaling (secreted alkaline phosphatase)” value in assay [1] was “blocked”.
For the substance “[(3R,4S)-4-(4′-(1,1-Dimethyl)aminomethyltriazolyl)Agl^3]-1 [2o]”, in the assay on IL-1β gene expression, the “IL-1β pro-inflammatory gene expression (qPCR)” value is recorded as “strong inhibitory effects”. Moreover, the “COX-2 pro-inflammatory gene expression (qPCR)” value in assay [2] was “strong inhibitory effects”.
Regarding “[(3R,4S)-4-(4′-Hydroxymethyltriazolyl)Agl^3]-1 [2q]”, the “IL-1β-induced activation (phosphorylation) of JNK” value in assay [3] is “inhibited”. The substance also gave a PTB rate in the assay on timed-pregnant CD-1 mice (delivery before G18.5, LPS alone ˜80%) of approximately 20%. Further, the “IL-1β pro-inflammatory gene expression (qPCR)” value in the assay on IL-1β gene expression is on record as “strong inhibitory effects”. Also, in assay [2], the “COX-2 pro-inflammatory gene expression (qPCR)” value is reported as “strong inhibitory effects”. In the assay on Sprague Dawley rat pups, the “retinal microglial morphology/activation (Iba-1 staining)” value was “ramified and branched microglia”; the “extent of vaso-obliteration (percentage of total retinal area)” value (“extent … (percentage of total retinal area)” for short) was approximately 20%.
Regarding “[(3R,4S)-4-(4′-m-Aminophenyltriazolyl)Agl^3]-1 [2n]”, in the assay on timed-pregnant CD-1 mice, the “effects on PTB” value is listed as “Neither N-oxyphthalimide 2f nor 4-m-aminophenyltriazole 2n exhibited effects on PTB”. In addition, in the assay on Sprague Dawley rat pups, the “retinal microglial morphology/activation (Iba-1 staining)” value is “ramified and branched microglia”; the “extent … (percentage of total retinal area)” value is approximately 20%.
For “[(3R,4S)-4-(4′-p-Methylphenyltriazolyl)Agl^3]-1 [2m]”, in the assay with IL-1β gene expression, the “IL-1β pro-inflammatory gene expression (qPCR)” value is “strong inhibitory effects”. The “COX-2 pro-inflammatory gene expression (qPCR)” value in assay [2] was “strong inhibitory effects”.
In the case of [(3R,4S)-4-(AcHN)Agl^3]-1 [2i], the “IL-1β-induced p38 phosphorylation” value in assay [4] is “inhibiting”. Also, the “IL-1β pro-inflammatory gene expression (qPCR)” value in the assay with IL-1β gene expression is reported as “without effecting”. Further, in assay [2], the “COX-2 pro-inflammatory gene expression (qPCR)” value is “blocked expression”.
For [(3R,4S)-4-(H2NO)Agl^3]-1 [2g], the “IL-1β pro-inflammatory gene expression (qPCR)” value in the assay with IL-1β gene expression was “without effecting”. Further, in assay [2], the “COX-2 pro-inflammatory gene expression (qPCR)” value is “blocked expression”. The “IL-1β-induced ROCK2 phosphorylation” value in assay [5] is “inhibitory activity”.
Take [(3R,4S)-4-(PhthO)Agl^3]-1 [2f]: the “effects on PTB” value in the assay with timed-pregnant CD-1 mice is “Neither N-oxyphthalimide 2f nor 4-m-aminophenyltriazole 2n exhibited effects on PTB”. In the assay with Sprague Dawley rat pups, the “retinal microglial morphology/activation (Iba-1 staining)” value was “ramified and branched microglia”; the “extent … (percentage of total retinal area)” value is listed as approximately 20%.
For the substance [(3R, 4S)-4-(N3)Agl^3]-1 [2c], in the assay with Sprague Dawley rat pups, the “protective effect against vaso-obliteration” value is on record as “no detectable protective effect” and the “retinal microglial morphology/activation (Iba-1 staining)” value is “active amoeboid state”.
As to [(3S,4S)-4-(NCS)Agl^3]-1 [2d], in assay [4], the “IL-1β-induced p38 phosphorylation” value is on record as “inhibiting”. In addition, in the assay on Sprague Dawley rat pups, the “protective effect against vaso-obliteration” value is on record as “tendencies to have a stronger protective effect than peptide 1”; the “retinal microglial morphology/activation (Iba-1 staining)” value is “ramified and branched microglia”; the “extent … (percentage of total retinal area)” value is approximately 20%.

For the origin of these results see patent US20240247029A1, “INTERLEUKIN-1 RECEPTOR MODULATORS AND USES THEREOF” (VALORISATION HSJ, LIMITED PARTNERSHIP, priority 2020, published 2024).
